Laboratory results reported in US5877210A, “Phosphotyrosine phosphatase inhibitors or phosphotyrosine kinase activators for controlling cellular proliferation” (priority 1995, dated 1999).
“Also recorded” adds a separate entry of the source.

Columns and labels:
[1] = system: HL-60 cells; assay: Anti-phosphotyrosine immunoblot; format: cell-based, human
[2] = system: PLCγ2; assay: PLCγ2 tyrosine phosphorylation in Ramos B cells; format: cell-based, human; conditions: 16 h, dose-dependent, no antigen receptor stimulation
Procedure: Syk is essential for the tyrosine phosphorylation of PLCγ2 that leads to Ca^2+ signaling in B cells following antigen receptor stimulation (M. Takata et al., EMBO J. 13:1341-1349 (1994)). […] In the experiments shown in FIG. 24, Ramos B cells were treated 16 h with the indicated concentrations of BMLOV and then stimulated for 2 min with α-μ. Antibody binding in immunoblots was detected by ECL. […] The extent of tyrosine phosphorylation of PLCγ2 induced by BMLOV was substantially more than that observed following a maximal sIgM stimulation, and no additional tyrosine phosphorylation of PLCγ2 could be induced by sIgM stimulation of BMLOV treated cells.

[3] = system: normal tonsillar B cells; assay: Normal tonsillar B cell proliferation; format: cell-based
Excerpt: BMLOV can inhibit normal tonsillar B cell proliferation driven by stimulation of CD40 via either anti-CD40 antibody or gp39 ligand plus either anti-CD20 antibody or phorbol 12-myristate 13-acetate (PMA). […] Variations between the individuals from which the tonsils were derived could account for the differences between these experiments.

[4] = system: Ramos B cells; assay: Cell cycle analysis by propidium iodide flow cytometry; format: cell-based, human
Procedure: Ramos B cells treated with various concentrations of BMLOV for 16 hours were examined for their DNA content by propidium iodide staining followed by FACScan flow cytometric analysis using the SFIT program.
Cells were fixed, permeabilized and stained for their DNA content with propidium iodide as previously described (D. H. Pluznik et al., "Colony Stimulating Factor (CSF) Controls Proliferation of CSF-Dependent Cells by Acting During the G1 Phase of the Cell Cycle," Proc. Natl. Acad. Sci. USA 81:7451-7455 (1984)). The stained cells were analyzed by flow cytometry on a FACScan (Becton-Dickinson) instrument. The percentage of cells in various stages of the cell cycle was calculated using the CellFIT program.
In FIG. 14, Ramos cells growing in log phase were treated with BMLOV for 48 hr at the indicated concentrations. DNA in the cells was stained with propidium iodide and quantitated by flow cytometry as described previously. The calculated percentage of cells at the stages of the cell cycle is shown. "A" marks apoptotic cells lacking normal amounts of DNA in the 5 μM dose panel.

[5] = system: normal peripheral blood T cells
Procedure: IL-2Rα expression was analyzed by flow cytometry after staining the cells with fluorescein-labeled anti-CD25. Cells not receiving any treatment are shown by the shaded profile, (- - -) 25 μM BMLOV only; (-) G19-4 only; (. . . ) G19-4 plus BMLOV. In Panel A, no IL-2 was added; in Panel B, incubations were performed with 1 ng/ml IL-2.

[6] = system: CEM; assay: Anti-phosphotyrosine immunoblot; format: cell-based, human; conditions: 16 hr
[7] = system: normal peripheral B cells; assay: Normal peripheral B cell [3H]-thymidine incorporation; format: cell-based, human
Procedure: In the experiment reported in Table 4, monoclonal antibodies to CD20 and CD40 were used to stimulate proliferation. Peripheral B cells were isolated from two healthy human volunteers. The cells were stimulated as listed in Table 4 and the effects of various doses of BMLOV on proliferation, as measured by [^3 H]-thymidine incorporation, were determined. BMLOV was able to inhibit proliferation induced by CD20, CD40, IL-4 and PMA in the various combinations tested. The cells from donor 2 were more sensitive, indicating some variation among individuals in their sensitivity to the drug.
Stimulation of CD20 was via monoclonal antibody 1F5 and stimulation of CD40 was via monoclonal antibody G28-5.
For assays of cellular proliferation, cells were grown five days in the presence of the indicated concentrations of BMLOV, pulsed 6 hr with [^3 H]-thymidine (New England Nuclear, Boston, Mass.), and counted in a liquid scintillation counter. Human peripheral blood lymphocytes (PBL) from normal volunteers were isolated from lymphocyte separation medium (Litton Bionetics, Kensington, Md.) by density gradient centrifugation. Monocytes were depleted from PBL by two rounds of plastic absorption for 30 minutes at 37° C. B cells were enriched for by negative selection using complement plus monoclonal antibodies to CD2, CD3, CD4, and CD8 for complement depletion. Clonogenic assays of colony formation in methylcellulose medium were performed as previously described (F. M. Uckun et al. (1992), supra).

[8] = system: A2780/Tax22; assay: In vitro cytotoxicity, XTT assay
Procedure: The vanadate compound pV(phen) was tested for in vitro cytotoxicity in a panel of human tumor cell lines. The cell lines used were a human colon carcinoma cell line, HCT116, and two drug-resistant sublines. The HCT116(VM46) subline was selected for resistance to VM-26 and expresses the multidrug resistant (MDR) phenotype including resistance to lipophilic anticancer drugs such as paclitaxel, VP-16, VM-26, doxorubicin, and vinblastine. This cell line overexpresses P-glycoprotein, a cell surface drug efflux pump, which limits accumulation of anticancer drugs such as the ones mentioned above. […] The compound pV(phen) was also evaluated in the ovarian carcinoma cell line A2780 and a paclitaxel resistant subline A2780-Tax22.
In the cytotoxicity assays, cells were plated and 24 hr later drugs were added and serially diluted. After 72 hr of continuous drug exposure, the tetrazolium dye XTT was added. A dehydrogenase enzyme in live cells reduces the XTT to a form that absorbs light at 450 nm which can be quantitated spectrophotometrically. The greater absorbance, the greater is the number of live cells. The results are expressed as a IC50 which is a drug concentration required to inhibit cell proliferation (i.e., absorbance at 450 nm) to 50% of that of untreated control cells.

[9] = peripheral blood t cells, 24 h, 25 µM

For `Cc1occc(=O)c1[O-].Cc1occc(=O)c1[O-].[O]=[V+2]` [BMLOV, Bis(maltolato)oxovanadium (IV)], the tyrosine phosphorylation response [1] was “showed a tyrosine phosphorylation response; also recorded: strong tyrosine phosphorylation was observed”, the “tyrosine phosphorylation of PLCγ2” value [2] was “strongly induced the tyrosine phosphorylation of PLCγ2” and the effect on proliferation ([3]; first experiment (FIG. 3), 0.1 to 10 μM BMLOV) was “little effect on proliferation”. The effect on proliferation ([3]; second experiment (FIG. 4), 5 μM BMLOV) was “substantial inhibition of proliferation”, the effect on proliferation ([3]; second experiment (FIG. 4), 50 μM BMLOV) was “completely blocked proliferation” and the “proportion of cells in G2/M” value ([4]; 0 to 5 μM BMLOV) was “did not change substantially”. The “proportion of cells in G1” value ([4]; 5 μM BMLOV, control 34%) was 14%, the “proportion of cells in S phase” value ([4]; 5 μM BMLOV, control 56%) was 77% and the “effect on cell cycle distribution, in words” value ([4]; 16 hours, 0 to 5 μM BMLOV) was “preferentially deplete the proportion of cells in G1 while increasing the proportion in S phase”. For the same compound, the “IL-2Rα expression without anti-CD3 stimulation” value ([5]; BMLOV alone or in combination with IL-2) was “did not induce IL-2Rα expression”, the “enhancement of IL-2Rα expression over anti-CD3 and IL-2” value [5, 9] was 3 fold and the “increase of IL-2Rα expression over anti-CD3 stimulation alone” value [5, 9] was 1.7 fold. The “induction of tyrosine phosphorylation” value [6] was “only low levels of tyrosine phosphorylation”, the “[3H]cpm incorporation” value ([7]; Donor #1, CD20 + CD40, 1 μM BMLOV) was 3619 cpm and the “[3H]cpm incorporation” value ([7]; Donor #1, CD20 + CD40, 5 μM BMLOV) was 3644 cpm. For the same compound, the “[3H]cpm incorporation” value ([7]; Donor #1, CD20 + CD40, 10 μM BMLOV) was 3422 cpm, the “[3H]cpm incorporation” value ([7]; Donor #1, CD20 + CD40, 25 μM BMLOV) was 2432 cpm and the “[3H]cpm incorporation” value ([7]; Donor #1, CD40 + IL4, 1 μM BMLOV) was 31966 cpm. For the same compound, the “[3H]cpm incorporation” value ([7]; Donor #1, CD40 + IL4, 5 μM BMLOV) was 33845 cpm, the “[3H]cpm incorporation” value ([7]; Donor #1, CD40 + IL4, 10 μM BMLOV) was 31637 cpm and the “[3H]cpm incorporation” value ([7]; Donor #1, CD40 + IL4, 25 μM BMLOV) was 24933 cpm. For the same compound, the “[3H]cpm incorporation” value ([7]; Donor #1, PMA + CD40, 1 μM BMLOV) was 62643 cpm, the “[3H]cpm incorporation” value ([7]; Donor #1, PMA + CD40, 5 μM BMLOV) was 58418 cpm and the “[3H]cpm incorporation” value ([7]; Donor #1, PMA + CD40, 10 μM BMLOV) was 45330 cpm. The “[3H]cpm incorporation” value ([7]; Donor #1, PMA + CD40, 25 μM BMLOV) was 25536 cpm, the “[3H]cpm incorporation” value ([7]; Donor #1, PMA + IL4, 1 μM BMLOV) was 61415 cpm and the “[3H]cpm incorporation” value ([7]; Donor #1, PMA + IL4, 5 μM BMLOV) was 48724 cpm. For the same compound, the “[3H]cpm incorporation” value ([7]; Donor #1, PMA + IL4, 10 μM BMLOV) was 45278 cpm, the “[3H]cpm incorporation” value ([7]; Donor #1, PMA + IL4, 25 μM BMLOV) was 14277 cpm and the “[3H]cpm incorporation” value ([7]; Donor #2, CD20 + CD40, 1 μM BMLOV) was 4593 cpm. The “[3H]cpm incorporation” value ([7]; Donor #2, CD20 + CD40, 5 μM BMLOV) was 5681 cpm, the “[3H]cpm incorporation” value ([7]; Donor #2, CD20 + CD40, 10 μM BMLOV) was 5269 cpm and the “[3H]cpm incorporation” value ([7]; Donor #2, CD20 + CD40, 25 μM BMLOV) was 856 cpm. For the same compound, the “[3H]cpm incorporation” value ([7]; Donor #2, CD40 + IL4, 1 μM BMLOV) was 16597 cpm, the “[3H]cpm incorporation” value ([7]; Donor #2, CD40 + IL4, 5 μM BMLOV) was 18824 cpm and the “[3H]cpm incorporation” value ([7]; Donor #2, CD40 + IL4, 10 μM BMLOV) was 12662 cpm. The “[3H]cpm incorporation” value ([7]; Donor #2, CD40 + IL4, 25 μM BMLOV) was 6013 cpm, the “[3H]cpm incorporation” value ([7]; Donor #2, PMA + CD40, 1 μM BMLOV) was 49102 cpm and the “[3H]cpm incorporation” value ([7]; Donor #2, PMA + CD40, 5 μM BMLOV) was 47624 cpm. For the same compound, the “[3H]cpm incorporation” value ([7]; Donor #2, PMA + CD40, 10 μM BMLOV) was 29024 cpm, the “[3H]cpm incorporation” value ([7]; Donor #2, PMA + CD40, 25 μM BMLOV) was 15671 cpm and the “[3H]cpm incorporation” value ([7]; Donor #2, PMA + IL4, 1 μM BMLOV) was 53642 cpm. For the same compound, the “[3H]cpm incorporation” value ([7]; Donor #2, PMA + IL4, 5 μM BMLOV) was 41892 cpm, the “[3H]cpm incorporation” value ([7]; Donor #2, PMA + IL4, 10 μM BMLOV) was 20313 cpm and the “[3H]cpm incorporation” value ([7]; Donor #2, PMA + IL4, 25 μM BMLOV) was 2730 cpm.

`[Na+].[O]=[V-]12([O][O]1)[O][O]2.c1cnc2c(c1)ccc1cccnc12` [pV(phen), sodium (1,10-phenanthroline) oxodiperoxovanadium (V)] was tested, and the IC50 ([8]; a2780/tax22 cells, 72 h) was 7.5 µM and the “fold resistance relative to parental cell line” value ([8]; vs A2780, 4320 min) was 0.9 fold.
